Measurements: ChEMBL document CHEMBL1151212, “Ananosic acids B and C, two new 18(13-->12)-abeo-lanostane triterpenoids from Kadsura ananosma” (J Nat Prod, 2004)
Values after ≈ are worked out from the molar mass of the structure shown.

Assays:
CCRF-CEM = assay: Cytotoxicity against human CCRF-CEM cells assessed as cell viability; format: functional, cell-based
HeLa = assay: Cytotoxicity against human HeLa cells assessed as cell viability; format: functional, cell-based

C/C(=C/CC[C@@H](C)C1=C2C(C)C[C@H]3C(=CC[C@H]4C(C)(C)[C@H](O)CC[C@]34C)[C@]2(C)CC1)C(=O)O (stereo partly specified) [ANANOSIC ACID A]
IC50 (CCRF-CEM): 45.4 µg/mL (≈ 99.8 µM)
IC50 (HeLa): 0.46 µg/mL (≈ 1.01 µM)

C=C1C[C@H]2C(=CC[C@H]3C(C)(C)[C@H](OC(C)=O)CC[C@]23C)[C@]2(C)CC[C@H]([C@H](C)CC/C=C(/C)C(=O)O)C12 (stereo partly specified) [ANANOSIC ACID B]
IC50 (CCRF-CEM): 49.6 µg/mL (≈ 99.9 µM)
IC50 (HeLa): 0.54 µg/mL (≈ 1.09 µM)

C=C1C[C@H]2C(=CC[C@H]3C(C)(C)C(=O)CC[C@]23C)[C@]2(C)CC[C@H]([C@H](C)CC/C=C(/C)C(=O)O)C12 (stereo partly specified) [ANANOSIC ACID C]
IC50 (CCRF-CEM): 45.2 µg/mL (≈ 99.9 µM)
IC50 (HeLa): 0.48 µg/mL (≈ 1.06 µM)
